# From patent publication US20230135761A1, “TRANSGENIC PLANTS HAVING PROLONGED RIPENING AND REDUCED SUSCEPTIBILITY TO PATHOGENS” (MIGAL GALILEE RESEARCH INSTITUTE LTD, priority 2020, published 2023)
# Test system: ICDH1 mRNA
# Assay: ICDH1 mRNA levels by real time PCR in 1-MCP-treated tomato fruits
# Type: in vivo, Solanum lycopersicum; cv. Micro Tom
# Conditions: 1-MCP-treated vs untreated Micro-Tom tomatoes; 24 hr at 20° C.; stages MG, BRK, EO; FIG. 2
# Description: Tomato (Solanum lycopersicum; cv. Micro Tom) plants were grown under natural light in a climate-controlled greenhouse, at 24° C. during the day and 18° C. during the night. 1-MCP was applied using SmartFresh powder (Rohm and Haas, Philadelphia, Pa., USA) containing 0.14% 1-MCP as active ingredient, dissolved in warm water at a concentration of 2,000 nL·mL^−1 1-MCP (stock solution). Fruits were enclosed in a 30 L airtight barrel and the stock solution was injected to a final concentration of […]. Treatment duration was 24 hr at 20° C. For the control, fruits were treated identically excluding 1-MCP application (Gamrasni et al., 2017).
# RNA was extracted using NucleoSpin® RNA Plant kit (Macherey-Nagel) according to the manufacturer's protocol. cDNA was prepared from 1 μg total RNA with Verso cDNA Synthesis Kit (ThermoFisher Scientific). The reaction was performed at 42° C. for 30 min. followed by inactivation at 95° C. for 2 min. […] Relative expression ratio was normalized to the S1ASR gene (Solyc04g071610) used as an internal control (Relative RNA levels were determined by the delta-delta Ct method). The significance of results (n=3) was evaluated by independent t-test at *P<0.05 using the SPSS Statistics 20 software (IBM, USA).
smiles,measurement,value
"CC1=CC1 [1-MCP, 1-methylcyclopropene]",ICDH1 mRNA production / levels,reduced significantly
